Test systems include NCI-H226 lung; KM20L2 colon; LOX IMVI melanoma; CAKI-1 renal; SK-MEL-5 melanoma; XF 498 CNS; M14 melanoma; HT29 colon; OVCAR-3 ovarian; EKVX NSCLC; RXF 393 renal; MDA-MB-435; BT-549 breast; MDA-N.
Holding throughout (assay): NCI-60 cell line screen, 48 h

Values joined by “and” are separate entries in the source; they are usually repeats but may differ in a detail not shown here. Equal values may be shown once.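 Assay format: 96-well plates, 48-hour exposure. Here, GI50 denotes the concentration required for 50% inhibition of growth. Definition used: TGI = concentration required for complete inhibition of growth.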

Consider `COc1cccc2c1c1ccc3c(c1n2C)C(=O)C=CC3=O`, for which the TGI in the assay with NCI-H226 lung was more than 100 µM; with KM20L2 colon, more than 100 µM; with LOX IMVI melanoma, 32.2 µM; in the assay on CAKI-1 renal, 11.6 µM; with SK-MEL-5 melanoma it was more than 100 µM; with XF 498 CNS, 29.4 µM. Moreover, the TGI with M14 melanoma was 27.7 µM; with HT29 colon, 12.6 µM; in the assay with OVCAR-3 ovarian, 30.5 µM.
On to `COc1ccc(CNc2cnc3cc(N)ccc3n2)cc1`, for which the TGI with NCI-H226 lung, in the assay on KM20L2 colon, in the assay on LOX IMVI melanoma, in the assay on SK-MEL-5 melanoma, in the assay with XF 498 CNS and in the assay with EKVX NSCLC was more than 100 µM in each case. Moreover, the TGI with RXF 393 renal, in the assay with M14 melanoma, in the assay with HT29 colon and in the assay with OVCAR-3 ovarian was more than 100 µM each time.
For the compound `C=C(C)C12CC3CC(/C(=N/O)C(C1)/C3=N\O)[C@@]2(C)O` (stereo partly drawn), the TGI with NCI-H226 lung, with KM20L2 colon, in the assay on LOX IMVI melanoma, in the assay on CAKI-1 renal, in the assay with SK-MEL-5 melanoma and in the assay on EKVX NSCLC was more than 100 µM in each case. Besides, the TGI with RXF 393 renal, with M14 melanoma, in the assay with HT29 colon and in the assay with OVCAR-3 ovarian was more than 100 µM each time.
Turning to `CSc1nc(-c2ccc(Cl)cc2)c(C#N)c(=O)n1C1OC(COC(C)=O)C(OC(C)=O)C(OC(C)=O)C1OC(C)=O` (stereo not drawn), the TGI in the assay on NCI-H226 lung, in the assay with KM20L2 colon, in the assay on CAKI-1 renal, with SK-MEL-5 melanoma, with XF 498 CNS and in the assay with EKVX NSCLC was more than 100 µM in each case. Also, the TGI is 25.6 µM and > 100 µM in the assay with RXF 393 renal; more than 100 µM in the assay with M14 melanoma; more than 100 µM in the assay on HT29 colon; 33.2 µM in the assay with OVCAR-3 ovarian. The GI50 in the assay on KM20L2 colon was 35 µM and > 100 µM; in the assay with RXF 393 renal, 10.6 µM and > 100 µM; with M14 melanoma, 34.7 µM and 88.9 µM; with HT29 colon it was 29.3 µM and > 100 µM.
As for `OC12c3ccccc3C1CCCCC2N1CCCC1` (stereo not drawn), the TGI with NCI-H226 lung, in the assay with KM20L2 colon, in the assay with LOX IMVI melanoma, in the assay with SK-MEL-5 melanoma, with EKVX NSCLC and with RXF 393 renal was more than 100 µM in each case. Also, the TGI in the assay on M14 melanoma and in the assay with HT29 colon was more than 100 µM each time.
On to `CC(C)(O)C(O)COc1c2c(cc3oc(=O)ccc13)OCO2` (stereo not drawn), for which the TGI in the assay on NCI-H226 lung, with KM20L2 colon, in the assay on LOX IMVI melanoma, in the assay with CAKI-1 renal, in the assay on SK-MEL-5 melanoma and in the assay on XF 498 CNS was more than 100 µM each time. The TGI with EKVX NSCLC, in the assay on RXF 393 renal, in the assay with M14 melanoma, in the assay on HT29 colon and in the assay on OVCAR-3 ovarian was more than 100 µM throughout.
As to `O=c1ccc2ccc(OP(=O)(O)O)cc2o1`, the TGI in the assay with NCI-H226 lung, in the assay on LOX IMVI melanoma, in the assay with CAKI-1 renal, in the assay with SK-MEL-5 melanoma, in the assay on EKVX NSCLC and in the assay with RXF 393 renal was more than 100 µM throughout. Besides, the TGI in the assay with M14 melanoma, in the assay on MDA-MB-435, with BT-549 breast, with HT29 colon, with MDA-N and in the assay with OVCAR-3 ovarian was more than 100 µM in each case.
For `COc1cc(/C=C2\C(=O)N(C(=O)Cc3ccccc3)N=C2C)cc(OC)c1OC`, the TGI with NCI-H226 lung, in the assay with LOX IMVI melanoma, in the assay on CAKI-1 renal, in the assay on SK-MEL-5 melanoma, in the assay on XF 498 CNS and in the assay on EKVX NSCLC was more than 100 µM each time. In addition, the TGI in the assay with M14 melanoma, in the assay with HT29 colon and in the assay on OVCAR-3 ovarian was more than 100 µM throughout.
With `O=c1nc2n3c4c(cccc4nc-2c(=O)[nH]1)CCC3`, the TGI with NCI-H226 lung, with LOX IMVI melanoma, in the assay with CAKI-1 renal, with SK-MEL-5 melanoma, with EKVX NSCLC and with RXF 393 renal was more than 100 µM throughout. Moreover, the TGI with M14 melanoma, in the assay on MDA-MB-435, in the assay with BT-549 breast, with HT29 colon, in the assay on MDA-N and in the assay on OVCAR-3 ovarian was more than 100 µM each time.
Take `CCOC1OC(COC(=O)C(C)(C)C)C(O)CC1n1cc(C)c(=O)[nH]c1=O` (stereo not drawn): the TGI in the assay on NCI-H226 lung, in the assay on LOX IMVI melanoma, in the assay with CAKI-1 renal, in the assay on SK-MEL-5 melanoma, with EKVX NSCLC and in the assay on RXF 393 renal was more than 100 µM each time. The TGI in the assay with M14 melanoma, in the assay on MDA-MB-435, in the assay with BT-549 breast, in the assay with HT29 colon, with MDA-N and in the assay with OVCAR-3 ovarian was more than 100 µM each time.
Regarding `Cc1ccc(CC(Cc2ccccc2C)C(=O)O)c(C(=O)O)c1` (stereo not drawn), the TGI in the assay on NCI-H226 lung, in the assay with LOX IMVI melanoma, in the assay with CAKI-1 renal, with SK-MEL-5 melanoma, in the assay on EKVX NSCLC and with RXF 393 renal was more than 100 µM throughout. Also, the TGI in the assay with M14 melanoma, with MDA-MB-435, with BT-549 breast, in the assay on HT29 colon, in the assay on MDA-N and with OVCAR-3 ovarian was more than 100 µM each time.
On to `NC(=O)C1CCCN1C(=O)C(Cc1cnc[nH]1)NC(=O)C1CCCC1` (stereo not drawn), for which the TGI in the assay with NCI-H226 lung, with LOX IMVI melanoma, with CAKI-1 renal, in the assay with SK-MEL-5 melanoma, with EKVX NSCLC and in the assay with RXF 393 renal was more than 100 µM in each case. Also, the TGI in the assay on M14 melanoma, in the assay with MDA-MB-435, in the assay on BT-549 breast, in the assay on HT29 colon, in the assay with MDA-N and with OVCAR-3 ovarian was more than 100 µM each time.
With `COc1ccc2c3c1OC1C(F)C=CC4(O)C(C2)NCCC314` (stereo not drawn), the TGI was found to be 30.8 µM in the assay on NCI-H226 lung; 10.4 µM in the assay on LOX IMVI melanoma; 6.56 µM with CAKI-1 renal; 16.1 µM in the assay with SK-MEL-5 melanoma; 11 µM with EKVX NSCLC; 7.98 µM in the assay with RXF 393 renal. Moreover, the TGI was 4.93 µM in the assay on M14 melanoma; 3.34 µM in the assay on MDA-MB-435; 6.66 µM in the assay on BT-549 breast; 10.9 µM in the assay with HT29 colon; 11 µM in the assay on MDA-N; 7.07 µM with OVCAR-3 ovarian.
`COc1cc(C2C(Cl)C(=O)N2NC(=O)Cc2ccccc2)cc(Br)c1O` (stereo not drawn): the TGI with NCI-H226 lung, in the assay on KM20L2 colon, in the assay with LOX IMVI melanoma, in the assay on CAKI-1 renal, in the assay on SK-MEL-5 melanoma and in the assay with XF 498 CNS was more than 100 µM in each case. Also, the TGI in the assay on EKVX NSCLC, with RXF 393 renal, in the assay on M14 melanoma, in the assay with HT29 colon and with OVCAR-3 ovarian was more than 100 µM throughout.
Consider `COc1ccc2c(c1)Cc1c(NCCN(C)C)ccc(C(=O)NCCCN(C)CCCNC(=O)c3ccc(NCCN(C)C)c4c3Nc3ccc(OC)cc3C4)c1N2`, for which the TGI came to 0.241 µM in the assay with NCI-H226 lung; 0.766 µM with LOX IMVI melanoma; 11.9 µM in the assay on CAKI-1 renal; 1.72 µM in the assay on SK-MEL-5 melanoma; 0.643 µM with EKVX NSCLC; 1.85 µM in the assay on RXF 393 renal. For the same compound, the TGI stood at 1.79 µM in the assay with M14 melanoma; 0.191 µM with MDA-MB-435; 1.5 µM in the assay with BT-549 breast; 0.566 µM with HT29 colon; 0.224 µM in the assay on MDA-N; 1.21 µM with OVCAR-3 ovarian.
For `C=C(Cl)C(Cl)(CBr)CCC(Br)C(C)(C)Br` (stereo not drawn), the TGI in the assay with NCI-H226 lung amounted to 37.2 µM; in the assay with LOX IMVI melanoma, 33.3 µM; with CAKI-1 renal it was 5.3 µM; in the assay with SK-MEL-5 melanoma, 30.2 µM; in the assay with EKVX NSCLC, 15.6 µM; in the assay on RXF 393 renal, 4.03 µM. In addition, the TGI in the assay on M14 melanoma was found to be 33.6 µM; with MDA-MB-435 it was 24.5 µM; with BT-549 breast it was 20.8 µM; in the assay with HT29 colon it was 2.41 µM; with MDA-N, 21.2 µM; in the assay with OVCAR-3 ovarian it was 6.65 µM.
Regarding `NC1N=C(c2ccc(Cl)cc2)C2=C(N1)c1ccccc1CC2` (stereo not drawn), the TGI in the assay with NCI-H226 lung was 54.3 µM; with LOX IMVI melanoma, more than 50.9 µM; with CAKI-1 renal it was more than 100 µM; in the assay with SK-MEL-5 melanoma, more than 56.3 µM; in the assay on EKVX NSCLC, more than 100 µM; in the assay on RXF 393 renal, 50.1 µM. The TGI in the assay on M14 melanoma was more than 59.3 µM; with MDA-MB-435, more than 22.6 µM; in the assay on BT-549 breast it was more than 100 µM; in the assay on HT29 colon, 28.4 µM; in the assay with MDA-N it was more than 100 µM; with OVCAR-3 ovarian, more than 100 µM.
`O=C1NC2c3c(I)sc(I)c3C(=O)C2O1` (stereo not drawn): the TGI in the assay with NCI-H226 lung was determined as 20.4 µM; with LOX IMVI melanoma, 5.15 µM; in the assay on CAKI-1 renal it was 9.36 µM; with SK-MEL-5 melanoma it was 6.16 µM; in the assay with EKVX NSCLC, 16.5 µM; with RXF 393 renal, 12.7 µM. The TGI in the assay on M14 melanoma came to 5.23 µM; with MDA-MB-435 it was 17.5 µM; with BT-549 breast it was 15.9 µM; in the assay with HT29 colon, 3.25 µM; in the assay on MDA-N it was 9.16 µM; in the assay with OVCAR-3 ovarian, 11.1 µM.
`Cc1cc(S(=O)(=O)Nc2n[nH]c(-c3ccc(Cl)cc3)n2)c(SSc2cc(Cl)c(C)cc2S(=O)(=O)Nc2n[nH]c(-c3ccc(Cl)cc3)n2)cc1Cl`: the TGI was 73.3 µM in the assay with NCI-H226 lung; 64.3 µM with LOX IMVI melanoma; more than 100 µM in the assay with CAKI-1 renal; 86.8 µM in the assay on SK-MEL-5 melanoma; 89.6 µM with EKVX NSCLC; 63.7 µM in the assay with RXF 393 renal. Also, the TGI in the assay with M14 melanoma was more than 100 µM; in the assay with MDA-MB-435, more than 100 µM; in the assay on BT-549 breast it was more than 100 µM; in the assay on HT29 colon it was 57.2 µM; with MDA-N, more than 100 µM; in the assay with OVCAR-3 ovarian it was 85.1 µM.
Regarding `CCOC1CN=C(Nc2cccc3ccccc23)S1` (stereo not drawn), the TGI in the assay with NCI-H226 lung, in the assay on LOX IMVI melanoma, in the assay with CAKI-1 renal, with SK-MEL-5 melanoma, in the assay on EKVX NSCLC and with RXF 393 renal was more than 10 µM throughout. Further, the TGI with M14 melanoma, in the assay with MDA-MB-435, in the assay with BT-549 breast, in the assay with HT29 colon, in the assay on MDA-N and in the assay with OVCAR-3 ovarian was more than 10 µM in each case.
In the case of `N#CC(c1ccccc1)N(CCCCCCN(C(=O)c1ccccc1)C(C#N)c1ccccc1)C(=O)c1ccccc1` (stereo not drawn), the TGI in the assay with NCI-H226 lung was more than 100 µM; in the assay on LOX IMVI melanoma it was more than 100 µM; in the assay on CAKI-1 renal it was more than 100 µM; with SK-MEL-5 melanoma, 32.9 µM; in the assay with EKVX NSCLC, more than 100 µM; in the assay with RXF 393 renal, more than 100 µM. For the same compound, the TGI in the assay on M14 melanoma is more than 100 µM; with MDA-MB-435, 73.6 µM; in the assay on BT-549 breast, more than 100 µM; in the assay with HT29 colon, more than 100 µM; in the assay with MDA-N, more than 100 µM; in the assay with OVCAR-3 ovarian, more than 100 µM.
